The values below come from US20230265151A1, “GIP/GLP1 CO-AGONIST COMPOUNDS” (priority 2020, published 2023).

Like-named read-outs stand apart in the source and are kept apart here. *1 amine or outer side, *2 acyl side, *3 side chain or, on linkers, in order; H or OH if unused. Where a SMILES comes first, the peptide text is derived from it. Side-chain parts run from the residue outwards. [ ]: non-standard residue; d: D form. The star is where a group is joined. αMePhe(2-F) = C[C@](N)(Cc1ccccc1F)C(=O)O; γGlu = O=C(O)[C@H](CCC(=O)[*:2])N[*:1]; C14 diacid = O=C(O)CCCCCCCCCCCCC(=O)*; αMeY = C[C@](N)(Cc1ccc(O)cc1)C(=O)O; 4Pal = N[C@@H](Cc1ccncc1)C(=O)O; αMeL = CC(C)C[C@](C)(N)C(=O)O; Orn = NCCC[C@H](N)C(=O)O; AEEA = NCCOCCOCC(=O)O; Aib = CC(C)(N)C(=O)O

Type in all cases: cell-based
One test has as its target T1, hGIPR (Homo sapiens, UniProt P48546).
T1 construct: expressed in transfected cells
T1 sequence (P48546 22-466): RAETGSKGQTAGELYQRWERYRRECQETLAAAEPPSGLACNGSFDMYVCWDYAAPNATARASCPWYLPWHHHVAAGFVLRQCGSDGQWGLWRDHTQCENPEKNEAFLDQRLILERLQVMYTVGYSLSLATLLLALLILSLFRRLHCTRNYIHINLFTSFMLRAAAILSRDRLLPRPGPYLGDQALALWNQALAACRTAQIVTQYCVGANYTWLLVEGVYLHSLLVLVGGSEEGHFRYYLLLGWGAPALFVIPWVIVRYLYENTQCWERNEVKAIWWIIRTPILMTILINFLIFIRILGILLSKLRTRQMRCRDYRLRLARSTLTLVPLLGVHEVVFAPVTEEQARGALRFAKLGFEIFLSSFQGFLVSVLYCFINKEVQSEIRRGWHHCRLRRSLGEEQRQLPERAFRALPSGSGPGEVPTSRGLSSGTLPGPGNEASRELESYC
The test can be described thus: Functional cAMP formation (HTRF) in HEK-293 clonal cells expressing hGIPR, 0.1% bovine casein, without or with 1.0% human serum albumin. The note with it: for EC50: geometric mean. In outline: (§1)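 Cells were stimulated with peptide for 30 min at 37° C, then intracellular cAMP was measured by competitive HTRF (665/620 nm ratio) and converted to nM using a cAMP standard curve. Relative EC50 and Emax came from four-parameter logistic fits of percent maximal response against peptide concentration.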
(In general: cAMP levels reflect the balance of adenylyl cyclase and phosphodiesterase activity.)

In another test the target is T2, hGCGR (Homo sapiens, UniProt P47871).
T2 construct: expressed in transfected cells
T2 sequence (P47871 26-477): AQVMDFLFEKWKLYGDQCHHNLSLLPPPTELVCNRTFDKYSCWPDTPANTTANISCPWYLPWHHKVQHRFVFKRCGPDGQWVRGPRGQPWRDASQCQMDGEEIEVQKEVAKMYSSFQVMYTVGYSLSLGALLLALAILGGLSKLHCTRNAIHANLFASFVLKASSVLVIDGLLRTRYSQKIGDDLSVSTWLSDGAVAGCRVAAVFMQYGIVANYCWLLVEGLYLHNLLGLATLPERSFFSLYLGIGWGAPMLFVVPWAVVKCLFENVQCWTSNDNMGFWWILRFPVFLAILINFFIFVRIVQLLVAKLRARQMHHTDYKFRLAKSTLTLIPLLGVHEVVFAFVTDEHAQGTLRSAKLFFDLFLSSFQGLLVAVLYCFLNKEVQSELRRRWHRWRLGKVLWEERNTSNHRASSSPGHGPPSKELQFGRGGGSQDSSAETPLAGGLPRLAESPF
The test can be described thus: Functional cAMP formation (HTRF) in HEK-293 clonal cells expressing hGCGR, 0.1% bovine casein, without or with 1.0% human serum albumin. In outline:
as §1

The target of a further test is hGLP-1R (Homo sapiens, UniProt P43220). The test can be described thus: Functional cAMP formation (HTRF) in HEK-293 clonal cells expressing hGLP-1R, 0.1% bovine casein, without or with 1.0% human serum albumin. The arrangement: expressed in transfected cells. The settings on record: for EC50: geometric mean. In outline: as §1
Chain of hGLP-1R (P43220 24-463): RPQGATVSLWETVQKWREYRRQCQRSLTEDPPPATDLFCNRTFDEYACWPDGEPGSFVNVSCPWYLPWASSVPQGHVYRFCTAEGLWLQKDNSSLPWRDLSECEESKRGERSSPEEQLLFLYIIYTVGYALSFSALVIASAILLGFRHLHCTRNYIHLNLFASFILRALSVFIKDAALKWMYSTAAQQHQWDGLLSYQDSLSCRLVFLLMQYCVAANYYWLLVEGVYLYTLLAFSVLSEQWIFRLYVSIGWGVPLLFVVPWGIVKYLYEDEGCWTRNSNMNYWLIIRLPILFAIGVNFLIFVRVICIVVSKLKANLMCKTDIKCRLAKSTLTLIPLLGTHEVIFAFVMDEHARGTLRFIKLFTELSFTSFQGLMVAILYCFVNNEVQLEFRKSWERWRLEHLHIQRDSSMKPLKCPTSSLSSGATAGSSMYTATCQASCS
The mark [1] stands for this setting: HEK293, 0.1% bovine casein and 1.0% human serum albumin, 37° C., percent of maximal response to GIP(1-42)NH2, read-out: hGIPR Emax, % ± SEM.
Where [2] appears, read: HEK293, percent of maximal response to GIP(1-42)NH2, 37° C., 0.1% bovine casein, arithmetic mean, read-out: hGIPR Emax, % ± SEM.
The mark [3] stands for this setting: cAMP, incubated at 37° C., 0.1% bovine casein (no human serum albumin), read-out: hGIPR EC50, nM (SEM, n).
The mark [4] stands for this setting: 0.1% bovine casein and 1.0% human serum albumin, 37° C., geometric mean, read-out: hGCGR EC50, nM (SEM, n).
Where [5] appears, read: cAMP, incubated at 37° C., 0.1% bovine casein (no human serum albumin), geometric mean, read-out: hGCGR EC50, nM (SEM, n).
The mark [6] stands for this setting: cAMP, incubated at 37° C., 0.1% bovine casein (no human serum albumin), read-out: hGLP-1R EC50, nM (SEM, n).

A word on the EC50: it is the concentration at which the effect is half-maximal. What is called Emax is the maximal effect, on the per cent scale that the assay sets. As for `CC[C@H](C)[C@H](NC(=O)[C@H](CC(C)C)NC(=O)[C@](C)(Cc1ccc(O)cc1)NC(=O)[C@@H](CCC(=O)O)NC(=O)[C@@H](NC(=O)[C@H](Cc1ccccc1)NC(=O)[C@H](CCC(=O)O)NC(=O)C(C)(C)NC(=O)[C@H](CCC(N)=O)NC(=O)[C@H](C)NC(=O)[C@H](CCCCNC(=O)COCCOCCNC(=O)[C@@H](N)CCCCNC(=O)CC[C@H](NC(=O)CCCCCCCCCCCCC(=O)O)C(=O)O)NC(=O)[C@H](CCCN)NC(=O)[C@H](CC(=O)O)NC(=O)[C@H](CC(C)C)NC(=O)[C@](C)(CC(C)C)NC(=O)[C@@H](NC(=O)[C@H](CO)NC(=O)[C@H](Cc1ccncc1)NC(=O)[C@H](CC(=O)O)NC(=O)[C@H](CO)NC(=O)[C@@H](NC(=O)[C@](C)(Cc1ccccc1F)NC(=O)[C@@H](NC(=O)CNC(=O)[C@H](CCC(=O)O)NC(=O)C(C)(C)NC(=O)[C@@H](N)Cc1ccc(O)cc1)[C@@H](C)O)[C@@H](C)O)[C@@H](C)CC)[C@@H](C)CC)C(=O)N[C@@H](CCC(=O)O)C(=O)NCC(=O)NCC(=O)N[C@@H](CCCCNC(=O)COCCOCCNC(=O)[C@@H](N)CCCCNC(=O)CC[C@H](NC(=O)CCCCCCCCCCCCC(=O)O)C(=O)O)C(=O)N[C@@H](CO)C(=O)N[C@@H](CO)C(=O)NCC(=O)N[C@@H](C)C(=O)N1CCC[C@H]1C(=O)N1CCC[C@H]1C(=O)N1CCC[C@H]1C(=O)N[C@@H](CO)C(N)=O` [Example 35], the concentration giving a half-maximal response (EC50) is 0.35 nM on hGIPR (0.1% bovine casein and 1.0% human serum albumin, 37° C., read-out: hGIPR EC50, nM (SEM, n)); 0.0162 nM on hGIPR (setting [3]); more than 9950 nM at hGCGR (setting [4]); more than 9950 nM on hGCGR (setting [5]); 16.4 nM at hGLP-1R (0.1% bovine casein and 1.0% human serum albumin, 37° C., read-out: hGLP-1R EC50, nM (SEM, n)). For the same compound, the Emax at hGIPR (setting [1]) came to 91.7 ± 1.28%; on hGIPR (setting [2]), 97 ± 2.32%.
Consider `CC[C@H](C)[C@H](NC(=O)[C@H](CC(C)C)NC(=O)[C@](C)(Cc1ccc(O)cc1)NC(=O)[C@H](CCCCNC(=O)COCCOCCNC(=O)COCCOCCNC(=O)CC[C@H](NC(=O)CCCCCCCCCCCCC(=O)O)C(=O)O)NC(=O)[C@@H](NC(=O)[C@H](Cc1ccccc1)NC(=O)[C@H](CCC(=O)O)NC(=O)C(C)(C)NC(=O)[C@H](CCC(N)=O)NC(=O)[C@H](C)NC(=O)[C@H](CCCCNC(=O)COCCOCCNC(=O)COCCOCCNC(=O)CC[C@H](NC(=O)CCCCCCCCCCCCC(=O)O)C(=O)O)NC(=O)[C@H](CCCN)NC(=O)[C@H](CC(=O)O)NC(=O)[C@H](CC(C)C)NC(=O)[C@](C)(CC(C)C)NC(=O)[C@@H](NC(=O)[C@H](CO)NC(=O)[C@H](Cc1ccncc1)NC(=O)[C@H](CC(=O)O)NC(=O)[C@H](CO)NC(=O)[C@@H](NC(=O)[C@](C)(Cc1ccccc1F)NC(=O)[C@@H](NC(=O)CNC(=O)[C@H](CCC(=O)O)NC(=O)C(C)(C)NC(=O)[C@@H](N)Cc1ccc(O)cc1)[C@@H](C)O)[C@@H](C)O)[C@@H](C)CC)[C@@H](C)CC)C(=O)N[C@@H](CCC(=O)O)C(=O)NCC(=O)NCC(N)=O` [Example 189] (H-Y[Aib]EGT[αMePhe(2-F)]TSD[4Pal]SI[αMeL]LD[Orn]K([AEEA-AEEA-γGlu-C14 diacid])AQ[Aib]EFIK([AEEA-AEEA-γGlu-C14 diacid])[αMeY]LIEGG-NH2; N-terminus assumed), for which the Emax stood at 96.6 ± 4.38% on hGIPR (setting [2]) and 100 ± 3.68% at hGLP-1R (HEK293, percent of maximal response to GLP-1(7-36)NH2, 37° C., 0.1% bovine casein, arithmetic mean, read-out: hGLP-1R Emax, % ± SEM). In addition, the concentration giving a half-maximal response (EC50) at hGIPR (setting [3]) is 0.0202 nM; on hGCGR (setting [5]), more than 9950 nM; at hGLP-1R (setting [6]), 0.28 nM.
Take `CC[C@H](C)[C@H](NC(=O)[C@H](CC(C)C)NC(=O)[C@](C)(Cc1ccc(O)cc1)NC(=O)[C@@H](CCC(=O)O)NC(=O)[C@@H](NC(=O)[C@H](Cc1ccccc1)NC(=O)CNC(=O)C(C)(C)NC(=O)[C@H](CCC(N)=O)NC(=O)[C@H](C)NC(=O)[C@H](CCCCNC(=O)COCCOCCNC(=O)COCCOCCNC(=O)CC[C@H](NC(=O)CCCCCCCCCCCCC(=O)O)C(=O)O)NC(=O)[C@H](CCCN)NC(=O)[C@H](CC(=O)O)NC(=O)[C@H](CC(C)C)NC(=O)[C@](C)(CC(C)C)NC(=O)[C@@H](NC(=O)[C@H](CO)NC(=O)[C@H](Cc1ccncc1)NC(=O)[C@H](CC(=O)O)NC(=O)[C@H](CO)NC(=O)[C@@H](NC(=O)[C@](C)(Cc1ccccc1F)NC(=O)[C@@H](NC(=O)CNC(=O)[C@H](CCC(=O)O)NC(=O)C(C)(C)NC(=O)[C@@H](N)Cc1ccc(O)cc1)[C@@H](C)O)[C@@H](C)O)[C@@H](C)CC)[C@@H](C)CC)C(=O)N[C@@H](CCC(=O)O)C(=O)NCC(=O)NCC(=O)N[C@@H](CCCCNC(=O)COCCOCCNC(=O)COCCOCCNC(=O)CC[C@H](NC(=O)CCCCCCCCCCCCC(=O)O)C(=O)O)C(=O)N[C@@H](CO)C(=O)N[C@@H](CO)C(=O)NCC(=O)N[C@@H](C)C(=O)N1CCC[C@H]1C(=O)N1CCC[C@H]1C(=O)N1CCC[C@H]1C(=O)N[C@@H](CO)C(N)=O` [Example 103]: the Emax amounted to 94.2% on hGIPR (setting [1]); 92.8% on hGIPR (setting [2]); 96.9% at hGLP-1R (HEK293, 0.1% bovine casein and 1.0% human serum albumin, 37° C., percent of maximal response to GLP-1(7-36)NH2, read-out: hGLP-1R Emax, % ± SEM). Moreover, the EC50 on hGIPR (setting [3]) was 0.0305 nM; on hGCGR (setting [4]), more than 9950 nM; at hGCGR (setting [5]), more than 9950 nM; at hGLP-1R (setting [6]) it was 2.1 nM.
Turning to `CCCC[C@H](NC(=O)[C@H](CC(=O)O)NC(=O)[C@H](CO)NC(=O)[C@@H](NC(=O)[C@](C)(Cc1ccccc1F)NC(=O)[C@@H](NC(=O)CNC(=O)[C@H](CCC(=O)O)NC(=O)C(C)(C)NC(=O)[C@@H](N)Cc1ccc(O)cc1)[C@@H](C)O)[C@@H](C)O)C(=O)N[C@@H](CO)C(=O)N[C@H](C(=O)N[C@@](C)(CC(C)C)C(=O)N[C@@H](CC(C)C)C(=O)N[C@@H](CC(=O)O)C(=O)N[C@@H](CCCN)C(=O)N[C@H](C(=O)N[C@@H](C)C(=O)N[C@@H](CCC(N)=O)C(=O)NC(C)(C)C(=O)N[C@@H](CCCCNC(=O)COCCOCCNC(=O)COCCOCCNC(=O)CC[C@H](NC(=O)CCCCCCCCCOc1ccc(C(=O)O)cc1)C(=O)O)C(=O)N[C@@H](Cc1ccccc1)C(=O)N[C@H](C(=O)N[C@H](CCC(=O)O)C(=O)N[C@@](C)(Cc1ccc(O)cc1)C(=O)N[C@@H](CC(C)C)C(=O)N[C@H](C(=O)N[C@@H](CCCCNC(=O)COCCOCCNC(=O)COCCOCCNC(=O)CC[C@H](NC(=O)CCCCCCCCCOc1ccc(C(=O)O)cc1)C(=O)O)C(=O)NCC(=O)NCC(=O)N1CCC[C@H]1C(=O)N[C@@H](CO)C(=O)N[C@@H](CO)C(=O)NCC(=O)N[C@@H](C)C(=O)N1CCC[C@H]1C(=O)N1CCC[C@H]1C(=O)N1CCC[C@H]1C(=O)N[C@@H](CO)C(N)=O)[C@@H](C)CC)[C@@H](C)CC)[C@@H](C)CC)[C@@H](C)CC` [Example 333], the Emax on hGIPR (HEK293, read-out: hGIPR Emax, % ± SEM, cAMP, 37° C., 0.1% bovine casein and 1.0% human serum albumin, percent of maximal response to GIP(1-42)NH2) worked out at 100%; at hGIPR (HEK293, read-out: hGIPR Emax, % ± SEM, cAMP, 37° C., 0.1% bovine casein, percent of maximal response to GIP(1-42)NH2, arithmetic mean), 109%; at hGLP-1R (HEK293, read-out: hGLP-1R Emax, % ± SEM, cAMP, 37° C., 0.1% bovine casein and 1.0% human serum albumin, percent of maximal response to GLP-1(7-36)NH2) it was 93.3%. Further, the EC50 at hGIPR (hGIPR EC50, nM (SEM, n), cAMP, 37° C., 0.1% bovine casein (no human serum albumin)) was 0.0062 nM; on hGCGR (hGCGR EC50, nM (SEM, n), cAMP, 37° C., 0.1% bovine casein (no human serum albumin), geometric mean), more than 9950 nM; on hGCGR (hGCGR EC50, nM (SEM, n), cAMP, 37° C., 0.1% bovine casein and 1.0% human serum albumin, geometric mean (SEM, n)), more than 9950 nM; at hGLP-1R (hGLP-1R EC50, nM (SEM, n), cAMP, 37° C., 0.1% bovine casein (no human serum albumin)) it was 0.388 nM.
